US10111854B2, “Synthesis and use of amine-containing flavonoids as potent anti-leishmanial agents” (The Hong Kong Polytechnic University, priority 2014, dated 2018)

Tests used:
[1] = tested on: L. amazonensis; conditions: cutaneous leishmaniasis murine model; cited from earlier work
[2] = tested on: L. major FV1 promastigotes; assay: Anti-promastigote activity (MTS assay), L. major FV1; assay type: cell-based; conditions: Leishmania major, 72 hours
Outline: (§1)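 Promastigotes (1×10^5 per well) in Schneider's medium pH 6.9 with 10% FBS, exposed to serial compound concentrations for 72 h at 27 °C. Viability by MTS/PMS reduction over 4 h, OD 490 nm; IC50 derived.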

[3] = tested on: promastigotes (L. amazonensis LV78, L major FV1, L. donovani HU3, L. donovani 39); assay: Anti-promastigote activity, strain not given; assay type: cell-based; conditions: Leishmania amazonensis; strain not specified; read-out: IC50 against promastigotes
Outline: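 Promastigotes seeded at 1×10^5 per well and exposed to a concentration series of compound for 72 hours at 27° C. Viability read by MTS/PMS tetrazolium reduction (4 hours, OD 490 nm); IC50 derived.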

[4] = tested on: L. donovani HU3 promastigotes; assay: Anti-promastigote activity (MTS assay), L. donovani HU3; assay type: cell-based; conditions: Leishmania donovani, 72 hours
Outline: as §1

Row | IC50 [2] [nM] | IC50 [3] [nM] | IC50 [4] [nM] | SMILES | Foot pad lesion size [1]
1 | – | – | – | O=c1cc(-c2ccc(OCCOCCN(CCOCCOc3ccc(-c4cc(=O)c5ccccc5o4)cc3)Cc3ccncc3)cc2)oc2ccccc12 [compound 39] | effective in reducing foot pad lesion size
2 | 800 ± 100 | < 5000 | 500 ± 200 | O=c1cc(-c2ccc(OCCOCCN(Cc3ccccn3)Cc3ccccn3)cc2)oc2ccccc12 [FM09, 2-(4-(2-(2-(bis(pyridin-2-ylmethyl)amino)ethoxy)ethoxy)phenyl)-4H-chromen-4-one] | –
